In US10647675B2 (priority 2015, dated 2020):
Converted amounts (≈) assume the structure as drawn.

Experiments:
[1] = system: Trichophyton mentagrophytes SM-110; experiment: Antifungal activity evaluation test: minimum inhibitory concentration (MIC), broth dilution by reference to CLSI M38-A2; format: cell-based; conditions: SM110, read-out: MIC (T. menta.)
Outline: (§1)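 Broth microdilution after CLSI M38-A2: 2-fold DMSO dilution series in MOPS-buffered RPMI 1640 pH 7.0, inoculum 2×10^3 cells/mL final. Incubated 35° C for 4 days; MIC (μg/mL) is lowest concentration giving visually ≥80% growth inhibition versus growth control.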

[2] = system: Trichophyton rubrum KD-1130; experiment: as above; format: cell-based; conditions: KD1130, read-out: MIC (T. rubrum)
Outline: as §1

SMILES | MIC [1] | MIC [2]
FC(F)(F)c1ccc(Oc2ncccc2-c2ccnc3cccnc23)cc1 [I-226, 4-{2-[4-(trifluoromethyl)phenoxy]pyridin-3-yl}-1,5-naphthyridine] | ≤ 0.1 µg/mL | ≤ 0.1 µg/mL
FC(F)(F)c1ccc(Oc2ncccc2-c2cncc3nccnc23)cc1 [I-227, 8-{2-[4-(trifluoromethyl)phenoxy]pyridin-3-yl}pyrido[3,4-b]pyrazine] | ≤ 0.1 µg/mL | ≤ 0.1 µg/mL
FC(F)(F)c1ccc(Oc2ncccc2-c2cccc3ccnn23)cc1 [I-228, 7-{2-[4-(trifluoromethyl)phenoxy]pyridin-3-yl}pyrazolo[1,5-a]pyridine] | ≤ 0.1 µg/mL | ≤ 0.1 µg/mL
FC(F)(F)c1ccc(Oc2ncccc2-c2cccn3ccnc23)cc1 [I-229, 8-{2-[4-(trifluoromethyl)phenoxy]pyridin-3-yl}imidazo[1,2-a]pyridine] | 0.2 to 0.78 µg/mL (≈ 0.563 to 2.2 µM) | 1.56 to 6.25 µg/mL (≈ 4.39 to 17.6 µM)
FC(F)(F)c1ccc(Oc2ncccc2-c2cccc3ncnn23)cc1 [I-230, 5-{2-[4-(trifluoromethyl)phenoxy]pyridin-3-yl}[1,2,4]triazolo[1,5-a]pyridine] | 0.2 to 0.78 µg/mL (≈ 0.561 to 2.19 µM) | 0.2 to 0.78 µg/mL (≈ 0.561 to 2.19 µM)
FC(F)(F)c1ccc(Oc2ncccc2-c2cncc3nccn23)cc1 [I-231, 5-{2-[4-(trifluoromethyl)phenoxy]pyridin-3-yl}imidazo[1,2-a]pyrazine] | 1.56 to 6.25 µg/mL (≈ 4.38 to 17.5 µM) | 1.56 to 6.25 µg/mL (≈ 4.38 to 17.5 µM)
Cc1nn2c(c1-c1cccnc1Oc1ccc(C(F)(F)F)cc1)OCC2 [I-232, 6-methyl-7-{2-[4-(trifluoromethyl)phenoxy]pyridin-3-yl}-2,3-dihydropyrazolo[1,5-b]oxazole] | 0.2 to 0.78 µg/mL (≈ 0.554 to 2.16 µM) | 0.2 to 0.78 µg/mL (≈ 0.554 to 2.16 µM)
Cc1nn2c(c1-c1cccnc1Oc1ccc(C(F)(F)F)cc1)OCCCC2 [I-233, 2-methyl-3-{2-[4-(trifluoromethyl)phenoxy]pyridin-3-yl}-5,6,7,8-tetrahydropyrazolo[1,5-b][1,3]oxazepine] | 0.2 to 0.78 µg/mL (≈ 0.514 to 2 µM) | 0.2 to 0.78 µg/mL (≈ 0.514 to 2 µM)
COc1ccncc1-c1cccnc1Oc1ccc(Br)cc1 [I-234, 2-(4-bromophenoxy)-4′-methoxy-3,3′-bipyridine] | ≤ 0.1 µg/mL | ≤ 0.1 µg/mL
COc1ccncc1-c1cccnc1Oc1ccc(Cl)cc1 [I-235, 2-(4-chlorophenoxy)-4′-methoxy-3,3′-bipyridine] | 0.2 to 0.78 µg/mL (≈ 0.639 to 2.49 µM) | 0.2 to 0.78 µg/mL (≈ 0.639 to 2.49 µM)
COc1ccncc1-c1cccnc1Oc1ccc(F)cc1 [I-236, 2-(4-fluorophenoxy)-4′-methoxy-3,3′-bipyridine] | 1.56 to 6.25 µg/mL (≈ 5.26 to 21.1 µM) | 1.56 to 6.25 µg/mL (≈ 5.26 to 21.1 µM)
COc1ccncc1-c1cccnc1Oc1ccc(OC(F)(F)F)cc1 [I-237, 4′-methoxy-2-[4-(trifluoromethoxy)phenoxy]-3,3′-bipyridine] | ≤ 0.1 µg/mL | ≤ 0.1 µg/mL
COc1ccncc1-c1cccnc1Oc1ccc(OC(F)F)cc1 [I-238, 2-[4-(difluoromethoxy)phenoxy]-4′-methoxy-3,3′-bipyridine] | 0.2 to 0.78 µg/mL (≈ 0.581 to 2.27 µM) | 0.2 to 0.78 µg/mL (≈ 0.581 to 2.27 µM)
COc1ccncc1-c1cccnc1Oc1ccc(SC(F)(F)F)cc1 [I-239, 4′-methoxy-2-{4-[(trifluoromethyl)thio]phenoxy}-3,3′-bipyridine] | 0.2 to 0.78 µg/mL (≈ 0.529 to 2.06 µM) | 0.2 to 0.78 µg/mL (≈ 0.529 to 2.06 µM)
COc1ccncc1-c1cccnc1Oc1ccc(S(F)(F)(F)(F)F)cc1 [I-240, 4′-methoxy-2-[4-(pentafluorosulfanyl)phenoxy]-3,3′-bipyridine] | ≤ 0.1 µg/mL | ≤ 0.1 µg/mL
COc1ccncc1-c1cccnc1Oc1ccc(SC)cc1 [I-241, 4′-methoxy-2-[4-(methylthio)phenoxy]-3,3′-bipyridine] | ≤ 0.1 µg/mL | ≤ 0.1 µg/mL
COc1ccc(Oc2ncccc2-c2cnccc2OC)cc1 [I-242, 4′-methoxy-2-(4-methoxyphenoxy)-3,3′-bipyridine] | 0.2 to 0.78 µg/mL (≈ 0.649 to 2.53 µM) | 1.56 to 6.25 µg/mL (≈ 5.06 to 20.3 µM)
COc1ccncc1-c1cccnc1Oc1ccc(C#N)cc1 [I-243, 4-{[4′-methoxy-(3,3′-bipyridin)-2-yl]oxy}benzonitrile] | 0.2 to 0.78 µg/mL (≈ 0.659 to 2.57 µM) | 0.2 to 0.78 µg/mL (≈ 0.659 to 2.57 µM)
COc1ccncc1-c1cccnc1Oc1ccc(C(C)=O)cc1 [I-244] | 1.56 to 6.25 µg/mL (≈ 4.87 to 19.5 µM) | 1.56 to 6.25 µg/mL (≈ 4.87 to 19.5 µM)
CCOC(=O)c1ccc(Oc2ncccc2-c2cnccc2OC)cc1 [I-245] | ≤ 0.1 µg/mL | ≤ 0.1 µg/mL
COc1ccncc1-c1cccnc1Oc1ccc(C=O)cc1 [I-246] | 1.56 to 6.25 µg/mL (≈ 5.09 to 20.4 µM) | 1.56 to 6.25 µg/mL (≈ 5.09 to 20.4 µM)
COc1ccncc1-c1cccnc1Oc1ccc(C(OS(=O)(=O)c2ccc(C)cc2)C(F)(F)F)cc1 (stereo not drawn) [I-248] | 1.56 to 6.25 µg/mL (≈ 2.94 to 11.8 µM) | 1.56 to 6.25 µg/mL (≈ 2.94 to 11.8 µM)
COc1ccncc1-c1cccnc1Oc1ccc(CC(F)(F)F)cc1 [I-249, 4′-methoxy-2-[4-(2,2,2-trifluoroethyl)phenoxy]-3,3′-bipyridine] | 0.2 to 0.78 µg/mL (≈ 0.555 to 2.16 µM) | 0.2 to 0.78 µg/mL (≈ 0.555 to 2.16 µM)
COCc1ccc(Oc2ncccc2-c2cnccc2OC)cc1 [I-251, 4′-methoxy-2-[4-(methoxymethyl)phenoxy]-3,3′-bipyridine] | 1.56 to 6.25 µg/mL (≈ 4.84 to 19.4 µM) | 1.56 to 6.25 µg/mL (≈ 4.84 to 19.4 µM)
